Data set [1] has as its system serum lipids and serum lipid hydroperoxide. As to the kind of experiment: Pharmacological test method A for anti-hyperlipidemic activity (serum lipids, 2 weeks feeding). The format is in vivo, male Wistar strain rats. The gist of the method:
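Male Wistar rats (100±lg, 10 per group) fed 10 g/day for 2 weeks of a 1% cholesterol/0.5% cholic acid diet, test groups with 1% each of cycloartenol, 24-methylenecycloartanol and cyclobranol. After 16 h fast, aortic blood serum assayed enzymatically/colorimetrically for TC, HDL-C, TG, PL, LPO.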

The next data set deals with serum TC. To be noted: 1% added to diet containing 0.5% of cholesterol; cited from earlier work.
The test system of another data set is male ddy strain mice. In words: Acute toxicity test, mice, oral. It is filed as in vivo, mouse (male ddy strain). The settings on record: 0.1 to 5 g/Kg; for Mortality: 2 weeks observation. The procedure:
(§1) Acute toxicity tests were conducted using 5 male ddy strain mice (30±2 g) and 5 male Wistar strain rats (100±2 g) for each compound by oral administration.
(§2) The above 66 compounds of esters, and as control drugs, cycloartenol, 24-methylenecycloartanol, cyclobranol, and γ-orizanol were given forcibly to the above-mentioned mice and rats by means of a throat explorer rod in doses of 0.1 to 5 g/Kg for mice and 2 to 6 g/Kg for rats. During the test, the temperature of the animal room was kept at 22° to 23 ° C. […] In the inspection conducted after 2-week observation, no macroscopic lesion was found in any part of main organs. Thus the compound of the invention has very low toxicity, so that the LD50 value could not determined.

In a further data set the test system is male Wistar strain rats. As to the kind of experiment: Acute toxicity test, rats, oral. It is filed as in vivo, rat (male Wistar strain). The settings on record: 2 to 6 g/Kg; for Mortality: 2 weeks observation. The procedure: as §1, §2

For the compound `CC(C)=CCC[C@@H](C)[C@H]1CC[C@@]2(C)[C@@H]3CC[C@H]4C(C)(C)[C@@H](O)CC[C@@]45C[C@@]35CC[C@]12C` [Sample 1, cycloartenol], in data set [1], the AI change entry is “showed tendencies to decrease it”. Moreover, the “percentage of TC lowering” value in the data set with serum TC is 13.7%. In the data set on male ddy strain mice, the Symptoms of toxicosis entry is “no symptom of toxicosis appeared” and the Mortality entry is reported as “none of the animals died”. For the same compound, in the data set with male Wistar strain rats, the Symptoms of toxicosis result is “no symptom of toxicosis appeared” and the Mortality result is given as “none of the animals died”.
Take `C=C(CCC(C)C1CCC2(C)C3CCC4C(C)(C)C(O)CCC45CC35CCC12C)C(C)C` (centres unmarked) [Sample 3, 24-methylenecycloartanol]: in data set [1], the AI change result was “only a slight tendency to increase”. Moreover, the “percentage of TC lowering” value in the data set on serum TC is on record as 10.2%. Moreover, in the data set on male ddy strain mice, the Symptoms of toxicosis entry was “no symptom of toxicosis appeared” and the Mortality entry is “none of the animals died”. Moreover, in the data set with male Wistar strain rats, the Symptoms of toxicosis result is “no symptom of toxicosis appeared” and the Mortality result is given as “none of the animals died”.
In the case of `CC(C)=C(C)CCC(C)C1CCC2(C)C3CCC4C(C)(C)C(O)CCC45CC35CCC12C` (centres unmarked) [Sample 2, cyclobranol], in data set [1], the AI change entry was “showed tendencies to decrease it”. In addition, the Symptoms of toxicosis entry in the data set on male ddy strain mice and in the data set with male Wistar strain rats was “no symptom of toxicosis appeared” throughout. Besides, the Mortality entry in the data set on male ddy strain mice and with male Wistar strain rats was “none of the animals died” throughout.

The record behind these values is patent US4748161A, “Triterpenyl esters of organic acids and hypolipidemic agents composed of them” (Amano Pharmaceutical Co., Ltd., priority 1984, dated 1988).
